# Measurements as given in patent EP4810052A2, “HCRHR2 SELECTIVE POLYPEPTIDES” (Gubra A/S, priority 2023, dated 2026).
# Like-named read-outs stand apart in the source and are kept apart here. Starred links: 1 amine or outer side, 2 acyl side, 3 side chain; linkers in the order of their positions; H or OH if unused. Non-standard residues stand in square brackets, D forms with d. Residues, ends and D or L forms follow the SMILES beside them. Groups on a side chain read outwards from the residue. *: point of attachment. C20 diacid = O=C(O)CCCCCCCCCCCCCCCCCCC(=O)*; γGlu = O=C(O)[C@H](CCC(=O)[*:2])N[*:1]; NMeI = CC[C@H](C)[C@H](NC)C(=O)O; Nle = CCCC[C@H](N)C(=O)O; AEEA = NCCOCCOCC(=O)O; Aib = CC(C)(N)C(=O)O
# Columns and labels:
# hCRHR2 = biological target: T1, hCRHR2 (Homo sapiens, UniProt Q13324); assay: HTRF cAMP assay, determination of hCRHR2 potency (peptide libraries 5 conc., purified peptides 11 conc.); assay type: cell-based
# T1 sequence (Q13324 1-411): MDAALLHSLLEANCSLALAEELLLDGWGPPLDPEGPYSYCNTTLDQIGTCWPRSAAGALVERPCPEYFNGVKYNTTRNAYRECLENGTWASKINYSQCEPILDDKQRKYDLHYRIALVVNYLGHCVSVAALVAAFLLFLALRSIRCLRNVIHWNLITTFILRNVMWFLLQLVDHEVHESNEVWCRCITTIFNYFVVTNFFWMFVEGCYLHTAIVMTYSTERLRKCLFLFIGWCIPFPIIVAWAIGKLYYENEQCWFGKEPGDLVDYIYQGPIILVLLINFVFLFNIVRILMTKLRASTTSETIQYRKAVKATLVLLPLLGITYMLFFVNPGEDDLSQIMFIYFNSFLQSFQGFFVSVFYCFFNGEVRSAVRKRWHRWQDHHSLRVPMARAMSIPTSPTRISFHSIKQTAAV
# Summary of the method: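 EC50 derived by variable-slope sigmoid regression of FRET-based cAMP data; cellular cAMP displaced d2-labelled tracer from cryptate anti-cAMP antibody. Stable human CRHR2 CHO-K1 suspension cells, revived from frozen stocks just before the run.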
# hCRHR1 = biological target: T2, hCRHR1 (Homo sapiens, UniProt P34998); assay: HTRF cAMP assay, determination of hCRHR1 potency (peptide libraries 5 conc., purified peptides 11 conc.); assay type: cell-based
# T2 sequence (P34998 24-415): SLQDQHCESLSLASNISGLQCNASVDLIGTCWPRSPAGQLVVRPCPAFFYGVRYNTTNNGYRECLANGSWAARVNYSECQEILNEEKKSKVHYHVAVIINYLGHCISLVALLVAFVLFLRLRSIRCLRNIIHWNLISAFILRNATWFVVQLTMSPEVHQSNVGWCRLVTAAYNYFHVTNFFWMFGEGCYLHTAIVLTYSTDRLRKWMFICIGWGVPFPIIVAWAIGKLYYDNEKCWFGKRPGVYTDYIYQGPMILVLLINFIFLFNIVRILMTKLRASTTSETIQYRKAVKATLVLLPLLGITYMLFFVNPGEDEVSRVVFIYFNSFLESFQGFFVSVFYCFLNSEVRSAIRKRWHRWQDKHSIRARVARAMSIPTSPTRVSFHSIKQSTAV
# Summary of the method: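 Cellular cAMP was read by time-resolved FRET between d2-labelled cAMP and cryptate anti-cAMP antibody. The cells were freshly thawed suspension CHO-K1 cells stably expressing human CRHR1.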
# [1] = Table 4, library peptides having X^38 = Nle, read-out: hCRHR2 pEC50 (converted)
# [2] = Table 4, library peptides having X^38 = Nle, read-out: hCRHR1 pEC50 (converted)
Structure (SMILES),EC50 (hCRHR2; [1]),EC50 (hCRHR1; [2]),further results
CCCC[C@H](NC(=O)[C@@H](NC(=O)[C@H](CCC(=O)O)NC(=O)[C@H](C)NC(=O)[C@H](CC(N)=O)NC(=O)C(C)(C)NC(=O)[C@H](CCCCNC(=O)COCCOCCNC(=O)COCCOCCNC(=O)CC[C@H](NC(=O)CC[C@H](NC(=O)CCCCCCCCCCCCCCCCCCC(=O)O)C(=O)O)C(=O)O)NC(=O)[C@H](C)NC(=O)[C@H](CCC(N)=O)NC(=O)[C@H](CCC(=O)O)NC(=O)[C@H](CCCNC(=N)N)NC(=O)[C@H](C)NC(=O)[C@H](C)NC(=O)[C@H](CCCNC(=N)N)NC(=O)[C@H](C)NC(=O)[C@H](CCCNC(=N)N)NC(=O)[C@H](C)NC(=O)[C@H](CCC(N)=O)NC(=O)CNC(=O)[C@H](CC(C)C)NC(=O)[C@H](CC(C)C)NC(=O)[C@@H](NC(=O)[C@H](CCC(N)=O)NC(=O)[C@H](CC(C)C)NC(=O)[C@H](CC(C)C)NC(=O)CNC(=O)[C@@H](NC(=O)[C@@H]1CCCN1C(=O)[C@@H](NC(=O)[C@H](CC(=O)O)NC(=O)[C@H](CC(C)C)NC(=O)[C@H](CO)NC(=O)[C@H](CC(C)C)NC(=O)[C@@H](NC(=O)[C@@H](NC)[C@@H](C)CC)C(C)C)C(C)C)[C@@H](C)CC)[C@@H](C)CC)[C@@H](C)CC)C(=O)N[C@@H](C)C(=O)N[C@@H](CCC(=O)O)C(=O)N[C@H](C(N)=O)C(C)C [compound 123] (H-[NMeI]VLSLDVPIGLLQILLGQARARAAREQAK([AEEA-AEEA-γGlu-γGlu-C20 diacid])[Aib]NAEI[Nle]AEV-NH2),0.00501 nM,794 nM,–
CC[C@H](C)[C@H](N)C(=O)N[C@H](C(=O)N[C@@H](CC(C)C)C(=O)N[C@@H](CO)C(=O)N[C@@H](CC(C)C)C(=O)N[C@@H](CC(=O)O)C(=O)N[C@H](C(=O)N1CCC[C@H]1C(=O)N[C@H](C(=O)NCC(=O)N[C@@H](CC(C)C)C(=O)N[C@@H](CC(C)C)C(=O)N[C@@H](CCC(N)=O)C(=O)N[C@H](C(=O)N[C@@H](CC(C)C)C(=O)N[C@@H](CC(C)C)C(=O)N[C@@H](CCC(=O)O)C(=O)N[C@@H](CCC(N)=O)C(=O)N[C@@H](C)C(=O)N[C@@H](CCCNC(=N)N)C(=O)N[C@@H](C)C(=O)N[C@@H](CCCNC(=N)N)C(=O)N[C@@H](CO)C(=O)N[C@@H](CCC(N)=O)C(=O)N[C@@H](CCCNC(=N)N)C(=O)N[C@@H](CCC(=O)O)C(=O)N[C@@H](CCC(=O)O)C(=O)N[C@@H](C)C(=O)N[C@@H](CCCCNC(=O)COCCOCCNC(=O)COCCOCCNC(=O)CC[C@H](NC(=O)CC[C@H](NC(=O)CCCCCCCCCCCCCCCCCCC(=O)O)C(=O)O)C(=O)O)C(=O)N[C@H](C(=O)N[C@@H](CC(N)=O)C(=O)N[C@@H](C)C(=O)N[C@@H](CCC(=O)O)C(=O)N[C@H](C(=O)N[C@@H](CC(C)C)C(=O)N[C@@H](C)C(=O)N[C@@H](CCC(=O)O)C(=O)N[C@H](C(N)=O)C(C)C)[C@@H](C)CC)[C@@H](C)O)[C@@H](C)CC)[C@@H](C)CC)C(C)C)C(C)C [compound 70] (H-IVLSLDVPIGLLQILLEQARARSQREEAK([AEEA-AEEA-γGlu-γGlu-C20 diacid])TNAEILAEV-NH2),–,–,"EC50 (hCRHR2; library peptides, matched molecular pairs L vs Nle in position X^38, read-out: Potency hCRHR2 pEC50 (converted)): 1.26 nM; EC50 (hCRHR1; library peptides, matched molecular pairs L vs Nle in position X^38, read-out: Potency hCRHR1 pEC50 (converted)): 158000 nM"
CC[C@H](C)[C@H](N)C(=O)N[C@H](C(=O)N[C@@H](CC(C)C)C(=O)N[C@@H](CO)C(=O)N[C@@H](CC(C)C)C(=O)N[C@@H](CC(=O)O)C(=O)N[C@H](C(=O)N1CCC[C@H]1C(=O)N[C@H](C(=O)NCC(=O)N[C@@H](CC(C)C)C(=O)N[C@@H](CC(C)C)C(=O)N[C@@H](CCC(N)=O)C(=O)N[C@H](C(=O)N[C@@H](CC(C)C)C(=O)N[C@@H](CC(C)C)C(=O)N[C@@H](CCC(=O)O)C(=O)N[C@@H](CCC(N)=O)C(=O)N[C@@H](C)C(=O)N[C@@H](CCCNC(=N)N)C(=O)N[C@@H](C)C(=O)N[C@@H](CCCNC(=N)N)C(=O)N[C@@H](C)C(=O)N[C@@H](CC(C)C)C(=O)N[C@@H](CCCNC(=N)N)C(=O)N[C@@H](CCC(N)=O)C(=O)N[C@@H](CCC(=O)O)C(=O)N[C@@H](C)C(=O)N[C@@H](CCCCNC(=O)COCCOCCNC(=O)COCCOCCNC(=O)CC[C@H](NC(=O)CC[C@H](NC(=O)CCCCCCCCCCCCCCCCCCC(=O)O)C(=O)O)C(=O)O)C(=O)N[C@H](C(=O)N[C@@H](CC(N)=O)C(=O)N[C@@H](C)C(=O)N[C@@H](CCC(=O)O)C(=O)N[C@H](C(=O)N[C@@H](CC(C)C)C(=O)N[C@@H](C)C(=O)N[C@@H](CCC(=O)O)C(=O)N[C@H](C(N)=O)C(C)C)[C@@H](C)CC)[C@@H](C)O)[C@@H](C)CC)[C@@H](C)CC)C(C)C)C(C)C [SEQ ID NO: 37] (H-IVLSLDVPIGLLQILLEQARARALRQEAK([AEEA-AEEA-γGlu-γGlu-C20 diacid])TNAEILAEV-NH2),–,–,"EC50 (hCRHR2; Table 3, matched molecular pairs X^38 L vs Nle, peptide library of Example 4, read-out: hCRHR2 pEC50 (converted)): 3.16 nM; EC50 (hCRHR1; Table 3, matched molecular pairs X^38 L vs Nle, peptide library of Example 4, read-out: hCRHR1 pEC50 (converted)): 158000 nM"

# Continued, in another order:
EC50 (hCRHR2; [1]),EC50 (hCRHR1; [2]),Structure (SMILES),further results
0.01 nM,794 nM,CCCC[C@H](NC(=O)[C@@H](NC(=O)[C@H](CCC(=O)O)NC(=O)[C@H](C)NC(=O)[C@H](CC(N)=O)NC(=O)C(C)(C)NC(=O)[C@H](CCCCNC(=O)COCCOCCNC(=O)COCCOCCNC(=O)CC[C@H](NC(=O)CC[C@H](NC(=O)CCCCCCCCCCCCCCCCCCC(=O)O)C(=O)O)C(=O)O)NC(=O)[C@H](C)NC(=O)[C@H](CCC(N)=O)NC(=O)[C@H](CCC(=O)O)NC(=O)[C@H](CCCNC(=N)N)NC(=O)[C@H](C)NC(=O)[C@H](C)NC(=O)[C@H](CCCNC(=N)N)NC(=O)[C@H](C)NC(=O)[C@H](CCCNC(=N)N)NC(=O)[C@H](C)NC(=O)[C@H](CCC(N)=O)NC(=O)[C@H](Cc1c[nH]cn1)NC(=O)[C@H](CC(C)C)NC(=O)[C@H](CC(C)C)NC(=O)[C@@H](NC(=O)[C@H](CCC(N)=O)NC(=O)[C@H](CC(C)C)NC(=O)[C@H](CC(C)C)NC(=O)CNC(=O)[C@@H](NC(=O)[C@@H]1CCCN1C(=O)[C@@H](NC(=O)[C@H](CC(=O)O)NC(=O)[C@H](CC(C)C)NC(=O)[C@H](CO)NC(=O)[C@H](CC(C)C)NC(=O)[C@@H](NC(=O)[C@@H](NC)[C@@H](C)CC)C(C)C)C(C)C)[C@@H](C)CC)[C@@H](C)CC)[C@@H](C)CC)C(=O)N[C@@H](C)C(=O)N[C@@H](CCC(=O)O)C(=O)N[C@H](C(N)=O)C(C)C [compound 126] (H-[NMeI]VLSLDVPIGLLQILLHQARARAAREQAK([AEEA-AEEA-γGlu-γGlu-C20 diacid])[Aib]NAEI[Nle]AEV-NH2),–
0.126 nM,158000 nM,CCCC[C@H](NC(=O)[C@@H](NC(=O)[C@H](CCC(=O)O)NC(=O)[C@H](C)NC(=O)[C@H](CC(N)=O)NC(=O)C(C)(C)NC(=O)[C@H](CCCCNC(=O)COCCOCCNC(=O)COCCOCCNC(=O)CC[C@H](NC(=O)CC[C@H](NC(=O)CCCCCCCCCCCCCCCCCCC(=O)O)C(=O)O)C(=O)O)NC(=O)[C@H](C)NC(=O)[C@H](CCC(N)=O)NC(=O)[C@H](CCC(=O)O)NC(=O)[C@H](CCCNC(=N)N)NC(=O)[C@H](C)NC(=O)[C@H](C)NC(=O)[C@H](CCCNC(=N)N)NC(=O)[C@H](C)NC(=O)[C@H](CCCNC(=N)N)NC(=O)[C@H](C)NC(=O)[C@H](CCC(N)=O)NC(=O)[C@H](CC(C)C)NC(=O)[C@H](CC(C)C)NC(=O)[C@H](CC(C)C)NC(=O)[C@@H](NC(=O)[C@H](CCC(N)=O)NC(=O)[C@H](CC(C)C)NC(=O)[C@H](CC(C)C)NC(=O)CNC(=O)[C@@H](NC(=O)[C@@H]1CCCN1C(=O)[C@@H](NC(=O)[C@H](CC(=O)O)NC(=O)[C@H](CC(C)C)NC(=O)[C@H](CO)NC(=O)[C@H](CC(C)C)NC(=O)[C@@H](NC(=O)[C@@H](NC)[C@@H](C)CC)C(C)C)C(C)C)[C@@H](C)CC)[C@@H](C)CC)[C@@H](C)CC)C(=O)N[C@@H](C)C(=O)N[C@@H](CCC(=O)O)C(=O)N[C@H](C(N)=O)C(C)C [compound 235] (H-[NMeI]VLSLDVPIGLLQILLLQARARAAREQAK([AEEA-AEEA-γGlu-γGlu-C20 diacid])[Aib]NAEI[Nle]AEV-NH2),–
